Reference: patent US6376508B1, “Treatments for spinal muscular atrophy” (priority 2000, dated 2002)
Entries after “also recorded” stand apart in the source; their conditions may differ.

Tests used:
exon 7 of the SMN2 gene = test: RT-PCR analysis of SMN exon 7 expression in EBV transformed lymphoid cell lines of SMA patients; assay type: cell-based, human
[1] = tested on: exon 7-containing SMN protein; test: Western-blot analysis (H2 and H7 antibodies) of SMN protein in SMA patient lymphoid cell lines; assay type: cell-based, human; details: cytosolic and nuclear fractions, 4 hours stimulation, 0.5 ng/ml to 5 μg/ml
Protocol: Lymphoid cells were isolated from SMA patients with different degrees of severity. Whole blood was drawn from the patients, heparinized, then diluted 1:1 with PBS (phosphate buffered saline). The diluted sample was layered on a Ficoll-Hypaque gradient, and centrifuge at 2500 rpm for 30 minutes at room temperature. The buffy coat was collected from the centrifuged sample, washed twice with 5 ml PBS, collected, and resuspended in 5 ml RPMI medium, 0.5 ml Epstein-Barr virus (EBV stock), 50 μl PHA, and 50 μl of cyclosporine (0.2 mg/ml). The virus-treated sample was mixed well and transferred into a T-flask for incubation at 37° C. in a 5% CO2 incubator for 3 weeks.
Rabbits were immunized with synthetic peptides containing either human SMN amino acids 279-288 from exon 7 or amino acids 72-84 from exon 2. Specific antibodies (H7 and H2 batches) were purified from rabbit crude sera with an EAH-sepharose 4B column (Pharmacia) according to the manufacturer's instructions.
Protein samples, prepared from treated and untreated SMA lymphoid cells, were loaded on a 5% polyacrylamide stacking gel above a 12% separating gel, and the gel was run with a discontinuous buffer using Laemmli's method. […] The secondary antibody was detected with a 1.5% solution of 5-bromo-4-chloro-3-indoyl phosphate and 3% nitro blue tetrazolium in a developing buffer (100 mM NaCl, 5 mM MgCl2, 100 mM Tris.HCl, pH 9.5). […]

[2] = tested on: SMA-like mice (hSMN2 Smn-/-); test: Treatment of types 2 and 3 SMA-like mice via drinking water; assay type: in vivo, mouse
From the text: To generate hSMN2 Smn^−/− mice, hSMN2 Smn^+/− mice were crossed to Smn^+/− mice. Progeny lacking the murine SMN locus were identified by genotyping. The presence of the hSMN2 transgene was also confirmed.
These mice frequently developed chronic necrosis of the tail tip, muscular atrophy, subcutaneous edema in hindlimbs, and paralysis of hindlimbs. Type 3 mice survived and bred normally. The mild symptoms of these mice include short but enlarged tails.
The effect of sodium butyrate on the symptoms of SMA-like mice were investigated. Sodium butyrate was administered to ten SMA-like mice with type 2 symptoms and ten SMA-like mice with type 3 symptoms. These mice were identified at birth by genotype and phenotype. Thereafter, their drinking water was supplemented with a 0.8 μg/ml or an 8 μg/ml solution of sodium butyrate. The drinking water was available ad libitum. The amount of sodium butyrate taken by SMA-like mice was estimated to be approximate 4-80 μg/day. The survival time of sodium butyrate-treated type 2 SMA-like mice was longer, about 4 to 5 days longer on average, than untreated mice.
The effect of sodium butyrate administration on the tail phenotype of SMA-like mice was also monitored. The tails of untreated types 2 and 3 SMA-like mice have decreased diameter of muscle fibers, atrophy of muscle bundles, group atrophy and subcutaneous edema (Hsieh-Li et al. (2000) supra). […] The tail of a treated mouse was about 5 cm long on average, whereas the tail of an untreated mouse was about 1 cm long. Remarkably, the average length of the tail of treated mice, 5 cm, is close to the average length for wild-type mice, 6 cm.

[3] = tested on: SMA-like mice (progeny of hSMN2 Smn+/- intercross); test: In utero treatment of SMA-like mice (pregnant mice from hSMN2 Smn+/- intercross); assay type: in vivo, mouse
Protocol: To evaluate the therapeutic effect of sodium butyrate for severely affected SMA mice, the test compound was administered to pregnant mice from an hSMN2 Smn^+/− intercross. The number mice born with SMA-like phenotypes were counted and classified according to type. In one case, 4-8 μg/day sodium butyrate was administered to pregnant mice from a hSMN2 Smn^+/− intercross ad libitum in their drinking water beginning from 15 day post-coitum until parturition (Table 1).

[4] = treated mothers, 4-8 μg/day from 15 day post-coitum until parturition (untreated 10%)
[5] = treated mothers, 4-8 μg/day from 15 day post-coitum until parturition, 294 total pups

Structure (SMILES): CCCC(=O)[O-].[Na+] [sodium butyrate]
- splicing of SMN2 transcripts (exon 7 of the SMN2 gene; RT-PCR, treated vs untreated cells): changed to include exon 7
- amount of exon 7-containing SMN mRNA (exon 7 of the SMN2 gene; lymphoid cells cultured with 5 ng/ml to 50 μg/ml): increased
- time of greatest increase of exon 7-containing SMN mRNA after addition of the drug (exon 7 of the SMN2 gene; lymphoid cells, 5 ng/ml to 50 μg/ml): 4 h
- level of full-length SMN mRNA transcript (exon 7 of the SMN2 gene; relative to untreated control, lymphoid cells from all three types of SMA patients): increased levels of full-length SMN transcript; also recorded: increase
- amount of intact (exon 7-containing) SMN protein [1]: increase
- tail histopathology relative to untreated SMA-like mice ([2]; treated SMA-like mice): fewer atrophied muscle bundles, less group atrophy, and reduced subcutaneous edema
- frequency of chronic necrosis originating at the tip of the tail ([2]; treated SMA-like mice (untreated 50%)): 2%
- tail length on average ([2]; treated type 3 SMA-like mice (untreated about 1 cm, wild-type 6 cm)): about 5 cm
- survival time longer than untreated mice, on average ([2]; type 2 SMA-like mice, drinking water 0.8 or 8 μg/ml, approx. 4-80 μg/day): 4 to 5 days
- tail phenotype ([2]; type 3 SMA-like mice): close to wild-type
- exon 7-containing SMN protein levels in tissues ([2]; western blot and immunohistochemistry, multiple tissues including spinal cord motor neurons): elevated
- symptoms of progeny from treated mothers vs progeny from untreated mothers ([3]; higher dose, 40-80 μg/day): milder symptoms
- percent of pups with Type 2 symptoms ([3]; treated mothers, 4-8 μg/day from 15 day post-coitum until parturition (untreated 5%)): 7%
- percent of pups with Type 1 symptoms [3, 4]: 7%
- percent of pups with Type 3 symptoms [3, 4]: 16%
- number of pups with Type 2 symptoms [3, 5]: 22
- number of pups with Type 3 symptoms [3, 5]: 48
- number of pups with Type 1 symptoms ([3]; treated mothers, 4-8 μg/day in drinking water from 15 day post-coitum until parturition, 294 total pups): 21
